This passage reports activity change, negative = cytotoxicity and AC50 results from PubChem BioAssay AID687005 (Broad Institute, 2013).

Values joined by “and” are separate entries in the source; they are usually repeats but may differ in a detail not shown here. Equal entries are not always repeated. Records with an inconclusive call do not appear. Active and inactive are the calls of the source.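 The calls were made as follows: active = Compounds that reduce signal, with fitted half-maximal dose at or under twice the top valid tested dose; inconclusive = Poor fit, or flat curve losing 30 to 70% of signal; inactive = Potency past limit, flat within 30%, or opposite direction.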

Test system in the first assay: not listed separately
Briefly: viability loss in HEK293T cells – cell-based, ATP luminescence, cherry-pick samples, cytotoxicity control, dose response (AID 687005). The note with it: HEK293T viability, ATP luminescence (CellTiter-Glo), 48 h; at 23.5 µM (top of the series). In general terms: In ATP-based viability assays light output follows the ATP content of the culture.
For the compound `CCCNC(=O)[C@@H]1[C@@H](CO)[C@@H]2Cn3c(cccc3=O)[C@H]1N2C(=O)Nc1cc(F)ccc1F`, the activity change, negative = cytotoxicity is 27.4% (inactive). The same measure, in the same setting: the figure for `Cc1cc(C(=O)Nc2cccc3c2O[C@@H](CN(C)S(=O)(=O)c2ccccc2)[C@@H](C)CN([C@@H](C)CO)C3=O)n(C)n1` is -20.3% (inactive). Still for that read-out and setting: the figure for `C/C=C/c1ccc([C@H]2[C@@H](C#N)N(S(=O)(=O)c3cccc(F)c3)[C@H]2CO)cc1` is 7.73% (inactive); for `C[C@H](CO)N1C[C@H](C)[C@H](CN(C)CC2CCCCC2)Oc2ccc(NC(=O)Nc3ccc4c(c3)OCO4)cc2C1=O` it is -3.46% (inactive). Still for that read-out and setting: to `C[C@@H]1CCCCO[C@@H](CN(C)C(=O)Nc2ccc3c(c2)OCO3)[C@@H](C)CN([C@H](C)CO)C(=O)c2cc(NC(=O)Nc3cccc4ccccc34)ccc2O1` belongs -9.79% (inactive). As to `C[C@H]1CN([C@@H](C)CO)C(=O)c2cc(NC(=O)Nc3ccc4c(c3)OCO4)ccc2O[C@@H]1CN(C)CC1CCCCC1`, the activity change, negative = cytotoxicity is -55.7% (inactive).

Still in this assay, the particulars now being: HEK293T viability, ATP luminescence (CellTiter-Glo), 48 h; at 26 µM (top of the series).
As for `C[C@H](CO)N1C[C@H](C)[C@@H](CN(C)Cc2ccc(-c3ccccc3)cc2)Oc2ccc(NC(=O)Nc3ccc(C(F)(F)F)cc3)cc2C1=O`, the activity change, negative = cytotoxicity is -3.25% (inactive). Consider `CNC(=O)CN(c1ccc(OC)cc1)S(=O)(=O)c1ccc(F)cc1`, for which the activity change, negative = cytotoxicity was 31.6% (inactive).

Consider `CCC(=O)N(C)C[C@H]1Oc2cc(C#CC(C)(C)O)ccc2S(=O)(=O)N([C@H](C)CO)C[C@@H]1C`, for which the activity change, negative = cytotoxicity was 41.1% (inactive).

`CC(=O)N1[C@@H]2CN(S(=O)(=O)c3ccccc3F)c3ccccc3[C@@H]2[C@@H]1CO`: the activity change, negative = cytotoxicity is 5.73% (inactive). On the same count and under the same terms, the figure for `CCCNC(=O)N(C)C[C@@H]1Oc2ncc(C#CCc3ccccc3)cc2C(=O)N([C@@H](C)CO)C[C@@H]1C` is 12% (inactive). For `O=C(CSc1ncnc2c1cnn2-c1ccccc1)NC1CCS(=O)(=O)C1` (stereo unspecified), the activity change, negative = cytotoxicity is 5% (inactive). `O=C(C[C@H]1C=C[C@H](NC(=O)C2CCC2)[C@@H](CO)O1)NC1CCC1`: the activity change, negative = cytotoxicity was -2.82% (inactive). The same measure, in the same setting: the figure for `CO[C@@H]1CN(C)C(=O)c2cc(NS(=O)(=O)c3cccc(C)c3)ccc2OC[C@@H](C)NC[C@H]1C` is 4.92% (inactive). Regarding `CN1C(=O)c2cc(NS(=O)(=O)c3cccc(F)c3)ccc2OC[C@@H]2O[C@@H](CC(=O)O)CC[C@H]21`, the activity change, negative = cytotoxicity is -21.4% (inactive). On the same count and under the same terms, the figure for `CCCC#Cc1cnc2c(c1)C(=O)N([C@@H](C)CO)C[C@H](C)[C@H](CN(C)C(=O)Nc1cccc(F)c1)O2` is 42% (inactive); for `COc1ccccc1-c1ccc2c(c1)O[C@@H](CN(C)C(=O)c1cccnc1)[C@H](C)CN([C@@H](C)CO)S2(=O)=O` it is -38% (inactive). Still for that read-out and setting: the figure for `C[C@H]1CN([C@@H](C)CO)C(=O)c2cccc(NS(C)(=O)=O)c2O[C@@H]1CN(C)Cc1ccc(-c2ccccc2)cc1` is -8.66% (inactive); for `COc1cccc(NC(=O)CN2CCN(S(=O)(=O)c3ccc(C(C)C)cc3)CC2)c1` it is 35.1% (inactive). Still for that read-out and setting: to `O=C(NC(=S)Nc1ccccc1N1CCOCC1)c1cccc([N+](=O)[O-])c1` belongs -5.81% (inactive); to `CO[C@H]1CN(C)C(=O)c2cc(NS(=O)(=O)c3ccc(C)cc3)ccc2OC[C@@H](C)N(C(=O)NC(C)C)C[C@@H]1C`, 26.2% (inactive). Consider `C[C@@H]1CCCCO[C@H](CN(C)S(=O)(=O)c2cccs2)[C@@H](C)CN([C@@H](C)CO)C(=O)c2cc(NC(=O)CCC(F)(F)F)ccc2O1`, for which the activity change, negative = cytotoxicity was 0.337% (inactive).

With `CCOC(=O)CSc1ncnc2c1cnn2-c1ccc(Cl)cc1`, the activity change, negative = cytotoxicity was 0.015% (inactive). On the same count and under the same terms, the figure for `O=C(C[C@H]1C[C@@H]2c3cc(NC(=O)CC4CC4)ccc3O[C@@H]2[C@@H](CO)O1)NCc1cccc(F)c1` is 35.8% (inactive). As for `Cc1noc(C)c1NC(=O)Nc1cccc2c1O[C@@H](CN(C)S(=O)(=O)c1cn(C)cn1)[C@@H](C)CN([C@@H](C)CO)C2=O`, the activity change, negative = cytotoxicity is -3.21% (inactive).

Turning to `CCC(=O)N(C)C[C@H]1Oc2cc(C#CC(C)(C)O)ccc2S(=O)(=O)N([C@@H](C)CO)C[C@@H]1C`, the activity change, negative = cytotoxicity is 8.91% (inactive).

As to `COc1ccc(S(=O)(=O)Nc2ccc3c(c2)C(=O)N([C@@H](C)CO)C[C@H](C)[C@@H](CN(C)C)OCCCC[C@H](C)O3)cc1`, the activity change, negative = cytotoxicity is -9.62% (inactive). As to `Cc1noc(C)c1S(=O)(=O)Nc1ccc2c(c1)CC(=O)N([C@H](C)CO)C[C@H](C)[C@@H](CN(C)S(=O)(=O)c1cn(C)cn1)O2`, the activity change, negative = cytotoxicity was -28.7% (inactive). For `CCC(=O)Nc1ccc2c(c1)C(=O)N(C)C[C@H](OC)[C@@H](C)CN[C@H](C)CO2`, the activity change, negative = cytotoxicity is 29.1% (inactive). As to `CO[C@H]1CC[C@H]2CCOc3c(C#N)cccc3C(=O)N(C)C[C@@H](C)C(=O)N(C)C[C@H]1O2`, the activity change, negative = cytotoxicity was -16.5% (inactive).

As for `CCC(C)(NC=O)C(=O)Nc1c(C)cccc1C` (stereo unspecified), the activity change, negative = cytotoxicity was -37.8% (inactive).

Consider `CCC(=O)N[C@@H]1C=C[C@H](CC(=O)NCC2CCCCC2)O[C@H]1CO`, for which the activity change, negative = cytotoxicity was -35.2% (inactive). On the same count and under the same terms, the figure for `CCNC(=O)C[C@H]1CC[C@@H](NC(=O)NC2CCCCC2)[C@H](CO)O1` is -2.42% (inactive); for `O=C(C[C@@H]1CC[C@H]2[C@@H](COC[C@H](O)CN2Cc2cccc(C(F)(F)F)c2)O1)NCc1ccccc1` it is -14.1% (inactive); for `CN(C)CCCn1c(=O)n(C2CCCCC2)c(=O)c2c3c(sc21)CCCCC3` it is 50.5% (inactive).

For `CNC(=O)C[C@H]1CC[C@H]2[C@@H](COc3ccc(NC(=O)Nc4ccccc4)cc3C(=O)N2C)O1`, the activity change, negative = cytotoxicity was 7.97% (inactive). For `O=C(C[C@H]1CC[C@H](NC(=O)Nc2ccc(C(F)(F)F)cc2)[C@H](CO)O1)NCc1cccc(F)c1`, the activity change, negative = cytotoxicity is 11.3% (inactive). Still for that read-out and setting: the figure for `COc1ccccc1CNC(=O)C[C@@H]1CC[C@@H]2[C@H](COC[C@@H](O)CN2Cc2ccccc2)O1` is -10.7% (inactive); for `CC=Cc1ccc2n(c1=O)C[C@@H]1[C@@H](CO)[C@H](C(=O)N3CCCCC3)N(Cc3ccccc3)[C@H]21` (mixture of isomers) it is 11.7% (inactive); for `O=C(COc1ccc2c(c1)CCC2)NCc1ccc(Cl)cc1` it is 18.5% (inactive). `CCCNC(=O)N1[C@H](CO)[C@@H](c2ccc(C3=CCCC3)cc2)[C@@H]1CN(C)C(C)=O`: the activity change, negative = cytotoxicity is 37.6% (inactive). With `C[C@@H]1CCCCO[C@@H](CN(C)C(=O)CCCN(C)C)[C@@H](C)CN([C@H](C)CO)C(=O)c2cc(NC(=O)Cc3ccccc3)ccc2O1`, the activity change, negative = cytotoxicity is 13.4% (inactive).

With `COCC(=O)N(C)C[C@@H]1Oc2ncc(C#CCC3CCCC3)cc2C(=O)N([C@@H](C)CO)C[C@H]1C`, the activity change, negative = cytotoxicity was 1.81% (inactive). On the same count and under the same terms, the figure for `O=C(C[C@@H]1C=C[C@@H](NC(=O)c2cccc(F)c2)[C@H](CO)O1)NCCN1CCCC1` is 20.8% (inactive); for `C/C=C/c1ccc([C@@H]2[C@@H](CNC(=O)C3CC3)N(C(=O)CC)[C@H]2CO)cc1` it is -5.25% (inactive). On to `CNC[C@@H]1OCCCC[C@H](C)Oc2ccc(NC(=O)NC(C)C)cc2C(=O)N([C@H](C)CO)C[C@H]1C`, for which the activity change, negative = cytotoxicity is 14.1% (inactive).

Consider `C[C@H]1CN([C@@H](C)CO)C(=O)c2cc(-c3cncnc3)cnc2O[C@H]1CN(C)C(=O)c1ccccc1F`, for which the activity change, negative = cytotoxicity is 4.74% (inactive). Still for that read-out and setting: to `O=C(Oc1ccc2c3c(c(=O)oc2c1)CCCC3)c1ccco1` belongs -27.5% (inactive); to `O=C(NCC[C@H]1CC[C@@H](NS(=O)(=O)c2ccc(F)cc2)[C@H](CO)O1)c1ccc2c(c1)OCO2`, 1.86% (inactive); to `CC(C)(C)SCCNC(=O)CN(c1ccccc1)S(=O)(=O)c1ccc(F)cc1`, -6.34% (inactive). On the same count and under the same terms, to `Cc1noc(C)c1NC(=O)Nc1cccc2c1O[C@H](CN(C)S(=O)(=O)c1cn(C)cn1)[C@H](C)CN([C@H](C)CO)C2=O` belongs -29.5% (inactive); to `COc1ccc(N2CCN(C(=O)CSc3ncnc4c3cnn4-c3ccc(OC)cc3)CC2)cc1`, -4.11% (inactive).

Still in this assay, the particulars now being: HEK293T viability, ATP luminescence (CellTiter-Glo), 48 h; at 42 µM (top of the series).
On to `Cc1ccc(NC(=O)C2(C)CCCN2CC(C)C)cc1C` (stereo unspecified), for which the activity change, negative = cytotoxicity is -2.43% (inactive).

Still in this assay, the particulars now being: HEK293T viability, ATP luminescence (CellTiter-Glo), 48 h; at 46 µM (top of the series).
Turning to `CCC(C)(C(=O)Nc1cccc(C)c1)N1CCC1=O` (stereo unspecified), the activity change, negative = cytotoxicity is 0.095% (inactive).

A further assay deals with HEK293T viability, ATP luminescence (CellTiter-Glo), 48 h. The description is as above.
Conditions: not given
Turning to `COc1ccc(C(=O)NC(=S)Nc2cccc(Cl)c2N2CCOCC2)cc1[N+](=O)[O-]`, the concentration at half-maximal activity (AC50) (commonly the concentration at which the activity in the assay is half-maximal) was 25.1 µM and 6.55 µM. Turning to `COC(=O)C1=C(C)N(Cc2ccccc2)C(=S)NC1c1cccc(OC)c1` (stereo unspecified), the AC50 is 13.1 µM and 4.84 µM.
